Source: patent US8129137B2, “Two-photon probe for real-time monitoring of intracellular free zinc ions, method for preparing the probe and method for real-time monitoring of intracellular free zinc ions using the probe” (Korea University Industrial & Academic Collaboration …, priority 2008, dated 2012)
Values after ≈ are worked out from the molar mass of the structure shown.

Legend:
[1] = Measurement of water solubility; format: physicochemical; details: kinetic from dmso stock, H2O, 0.2% DMSO, maximum concentration in the linear region of fluorescence intensity vs probe concentration
Experimental: A small amount of each of the two-photon probes (AZn2 and AZn1) prepared in Examples 1 and 2 was dissolved in DMSO to prepare a stock solution ([…]). The solution was diluted to 6.0×10^−3˜6.0×10^−5 M and added to a cuvette containing 3.0 mL of H2O by using a micro syringe. In all cases, the concentration of DMSO in H2O was maintained to be 0.2%.
FIGS. 1a through 1d are plots showing variations in the fluorescence intensity of the two-photon probes at different concentrations.
The plots of FIGS. 1b and 1d show variations in the fluorescence intensity of AZn2 and AZn1 as a function of the probe concentration, respectively, and have a profile in which the fluorescence intensity increases linearly at low concentrations. […] The maximum concentration in the linear region was taken as the water solubility. The water solubilities of the two probes were all 3.0 μM.

[2] = Fluorescence enhancement with varying Zn2+ concentrations; details: for FEF^OP, fluorescence enhancement factor by one-photon process / FEF^TP, fluorescence enhancement factor by two-photon process: (F−Fmin)/Fmin, MOPS buffer pH 7.2, presence of Zn2+
Experimental: The one-photon absorption and emission spectra and two-photon emission spectra of the two-photon probes AZn2 and AZn1 were measured with varying Zn^2+concentrations, and the results are shown in FIGS. 3a through 3f.
As can be known from FIGS. 3a through 3f, when small increments of Zn^2+were added to AZn1 and AZn2 in MOPS buffer solution (30 mM, pH 7.2, /=0.10), the one- and two-photon excitation fluorescence (emission) intensity increased gradually without affecting the absorption spectra, presumably due to the blocking of the photo-induced electron transfer (PET) process by the complexation with Zn^2+.
The fluorescence enhancement factors [FEF=(F−Fmin)/Fmin] of the two-photon probe AZn2 measured for one- and two-photon processes were 2.5-fold larger than those of the two-photon probe AZn1 as a result of the lower fluorescence quantum yield (Φ) in the absence, and higher Φ in the presence, of excess Zn^2+. These analytical results can be more easily understood from the data in Table 2.

[3] = One-photon fluorescence intensity as a function of pH; format: physicochemical; details: biologically relevant pH; 1 μM probe, 30 mM MOPS, 100 mM KCl
Experimental: FIGS. 8a and 8b show the one-photon fluorescence intensities of AZn1 and AZn2 (1 μM for each), respectively, as a function of pH when free Zn^2+ were absent (∘) and present at a concentration of 1 μM (▪) in mixed solutions of 30 mM MOPS and 100 mM KCl.

[4] = Dissociation constants for Zn2+ from one- and two-photon fluorescence titration; format: binding
Experimental: MOPS buffer solutions (30 mM, pH 7.2, 0.1 M KCl) containing different amounts of ZnSO4 and 10 mM EGTA were prepared.
The concentration of free Zn^2+ ([Zn^2+]free) was calculated from KZn−EGTA^app, [EGTA]free, and [Zn^2+]total using Equation 1: [Zn^2+]free=[Zn^2+]total/(αZn×KZn−EGTA^app×[EGTA]free) (1) where KZn−EGTA^app=KZn−EGTA/αZnαEGTA, αZn=1+10^(pH−pK^1^)+10^(2pH−pK^1^−pK^2^)+10^(3pH−pK^1^−pK^2^−pK^3^) . . . , αEGTA=1+10^(pK^1^−pH+0.11)+10^(pK^1^+pK^2^−2pH+0.22)+10^(pK^1^+pK^2^+pK^3^−3pH+0.33) . . . , and [EGTA]free=[EGTA]total−[Zn^2+]total. Therefore,
Then, the stability constant (KZn−EGTA) of the EGTA−Zn^2+ complex was obtained by the known method. For EGTA (pH 7.2, 0.1 M KCl, 25° C.), pK1, pK2, pK3 and log^K^Zn−EGTA were 9.40, 8.79, 2.70 and 12.6, respectively. […]
In order to determine accurate dissociation constants for the two-photon probes, fluorescence titration curves were obtained from FIGS. 3a and 3e using Equation 2:
[formula] where F is the fluorescence intensity, Fmax is the maximum fluorescence intensity, Fo is the fluorescence intensity in the absence of Zn^2+, and [Zn^2+]free is the concentration of free Zn^2+.
The Kd value that best fits the titration curve ([…]) with Equation 2 was calculated by using the Excel program. […]

Row | solubility [1] [µM] | pH sensitivity of fluorescence [3] | SMILES | FEF^OP, fluorescence enhancement factor by one-photon process [2] | FEF^TP, fluorescence enhancement factor by two-photon process [2] | detection limit for Zn2+ [4] | FEF (one- and two-photon) relative to AZn1 ([2]; larger than those of AZn1) [fold]
1 | 3 (≈ 1 µg/mL) | pH insensitivity | Nc1ccc(NCCN(Cc2ccccn2)Cc2ccccn2)cc1 [AZn1] | 21 | 24 | sub-nM range | 
2 | 3 (≈ 1.81 µg/mL) | pH insensitivity | COc1cc(NC(=O)CN(C)c2ccc3cc(C(C)=O)ccc3c2)ccc1NCCN(Cc1ccccn1)Cc1ccccn1 [AZn2] | 54 | 52 | sub-nM range | 2.5
